# Measured values from patent US20250000843A1, “LIGNAN-INSPIRED COMPOUNDS, METHODS OF MAKING, AND USING THEREOF” (IOWAIBO, INC., priority 2023, published 2025).
# Columns and labels:
# [1] = tested on: PC3, a human prostate cancer cell line; assay: MTT toxicity assay in PC3 prostate cancer cells; format: cell-based
# Method: Toxicity of the dibenzyl butyl lactone derivative (3-[(3,4-dimethoxyphenyl)cyclopentyl], 4-[(3-hydroxyphenol)methyl]oxolan-2-one) in breast cancer cells was evaluated using MTT assay. The MTT toxicity test is a colorimetric assay to measure cells' metabolic activity by serving as a substrate of cellular enzymes that reduce the tetrazolium orange dye, MTT (3-(4,5-Dimethylthiazol-2-yl)-2,5-diphenyltetrazolium bromide) to its insoluble, formazan, giving a purple color. The rate of conversion is directly proportional to cells' mitochondrial metabolic activity via NAD (P) H-dependent cellular oxidoreductase enzymes and serves as a surrogate marker of cell viability.
# Cells previously expanded were seeded in 96 well plates at 1.9×10^5 and 9.6×10^4 cells/plate for 24- and 72-hours treatment respectively. This concentration is known to show the best window for the MTT assay, with better sensitivity and low variability.
# 5 mg of powdered enterolactone, dibenzyl butyl lactone derivative enantiomer A, and dibenzyl butyl lactone derivative enantiomer B were dissolved in 500 μl of DMSO at room temperature. Eight-point curves, ⅓ dilutions (highest concentration 125 μM), were prepared.
# Twenty-four hours following the seeding process, the cells were washed once with phosphate buffered saline (PBS) and treated with the respective compounds in cell culture media. Each condition was tested in triplicates. For positive and negative controls, 8 mM methyl methane sulfonate (MMS) and DMSO 100% were used respectively.
# Following compound addition, the plates were incubated for 24 and 72 hours. After the treatment period, cells were washed twice with PBS and media was replaced with MTT reagent at 0.5 mg/ml in Dulbecco's modified Eagle medium (DMEM) without phenol red. The plates were gently shaken and incubated for 4 hours. After the incubation the medium was removed and replaced by DMSO. The plates were gently shaken to solubilize the formazan crystals. Absorbance was measured using an Envision multiplate reader at a wavelength of 570 nm.
# Toxicity of the dibenzyl butyl lactone derivative (3-[(3,4-dimethoxyphenyl)cyclopentyl], 4-[(3-hydroxyphenol)methyl]oxolan-2-one) in prostate cancer cells was evaluated using MTT assay. The same methods as those used in Example 2 were employed, except the cell line used was PC3, a human prostate cancer cell line, and cell cultures were established in Kaighn's modification of Ham's […] medium.
# MTT assay results are shown in Tables 16-21 and expressed as the percentage of cell death after treatment.
# [2] = tested on: human induced pluripotent stem (iPS) cells; format: cell-based
# Method: The dibenzyl butyl lactone derivative enantiomer A and B were compared to enterolactone and tested to determine toxicity using a human pluripotent stem (hPS) cell-based assay that predicts the developmental toxicity potential. […] The current study was conducted using human induced pluripotent stem (iPS) cells.
# The impact of test article exposure on ornithine and cystine metabolism in human induced pluripotent stem (iPS) cells was measured for three test articles (dibenzyl butyl lactone derivative enantiomer A, dibenzyl butyl lactone derivative enantiomer B, and enterolactone) and prediction of the potential for developmental toxicity was made through application of the hPS cell-based assay. Exposure spanned a range of eight treatment levels per test article ranging from 0.03-100 μM.
# The observed decrease in the o/c ratio following exposure to each test article is indicative of the potential for developmental toxicity and/or embryo lethality in vivo at or above the dTP concentration. FIGS. 15A-C show the o/c ratio of dibenzyl butyl lactone derivative enantiomer A (FIG. 15A), dibenzyl butyl lactone derivative enantiomer B (FIG. 15B), and (+/−) enterolactone (FIG. 15C). The graphs in FIGS. 15A-C show the cell viability and o/c/ ratio over concentrations of 0.03-100 μM with the straight horizontal line illustrating the developmental toxicity threshold of 0.85.
structure (smiles),measurement,setting,value
"O=C1OC[C@H](Cc2cccc(O)c2)[C@H]1Cc1cccc(O)c1 (racemic) [Enterolactone, reference compound]",Cell death #1 (%),"[1]; PC3, 24 hours, 0.06 μM",−3.37%
same,Cell death #2 (%),"[1]; PC3, 24 hours, 0.06 μM",−20.79%
same,Cell death #3 (%),"[1]; PC3, 24 hours, 0.06 μM",−22.43%
same,Cell death (%) MEAN,"[1]; PC3, 24 hours, 0.06 μM",−15.53%
same,Cell death #1 (%),"[1]; PC3, 24 hours, 0.17 μM",−12.56%
same,Cell death #2 (%),"[1]; PC3, 24 hours, 0.17 μM",−5.41%
same,Cell death #3 (%),"[1]; PC3, 24 hours, 0.17 μM",−10.24%
same,Cell death (%) MEAN,"[1]; PC3, 24 hours, 0.17 μM",−9.40%
same,Cell death #1 (%),"[1]; PC3, 24 hours, 0.51 μM",−29.78%
same,Cell death #2 (%),"[1]; PC3, 24 hours, 0.51 μM",−35.88%
same,Cell death #3 (%),"[1]; PC3, 24 hours, 0.51 μM",−8.98%
same,Cell death (%) MEAN,"[1]; PC3, 24 hours, 0.51 μM",−24.88%
same,Cell death #1 (%),"[1]; PC3, 24 hours, 1.54 μM",−30.56%
same,Cell death #2 (%),"[1]; PC3, 24 hours, 1.54 μM",−47.58%
same,Cell death #3 (%),"[1]; PC3, 24 hours, 1.54 μM",−25.82%
same,Cell death (%) MEAN,"[1]; PC3, 24 hours, 1.54 μM",−34.65%
same,Cell death #1 (%),"[1]; PC3, 24 hours, 4.63 μM",−41.49%
same,Cell death #2 (%),"[1]; PC3, 24 hours, 4.63 μM",−38.59%
same,Cell death #3 (%),"[1]; PC3, 24 hours, 4.63 μM",−32.20%
same,Cell death (%) MEAN,"[1]; PC3, 24 hours, 4.63 μM",−37.42%
same,Cell death #1 (%),"[1]; PC3, 24 hours, 13.89 μM",−33.85%
same,Cell death #2 (%),"[1]; PC3, 24 hours, 13.89 μM",−41.29%
same,Cell death #3 (%),"[1]; PC3, 24 hours, 13.89 μM",−40.62%
same,Cell death (%) MEAN,"[1]; PC3, 24 hours, 13.89 μM",−38.59%
same,Cell death #1 (%),"[1]; PC3, 24 hours, 41.67 μM",−32.30%
same,Cell death #2 (%),"[1]; PC3, 24 hours, 41.67 μM",−17.98%
same,Cell death #3 (%),"[1]; PC3, 24 hours, 41.67 μM",−35.59%
same,Cell death (%) MEAN,"[1]; PC3, 24 hours, 41.67 μM",−28.62%
same,Cell death #1 (%),"[1]; PC3, 24 hours, 125.00 μM",19.65%
same,Cell death #2 (%),"[1]; PC3, 24 hours, 125.00 μM",12.01%
same,Cell death #3 (%),"[1]; PC3, 24 hours, 125.00 μM",15.10%
same,Cell death (%) MEAN,"[1]; PC3, 24 hours, 125.00 μM",15.59%
same,Cell death #1 (%),"[1]; PC3, 72 hours, 0.06 μM",−39.68%
same,Cell death #2 (%),"[1]; PC3, 72 hours, 0.06 μM",−40.18%
same,Cell death #3 (%),"[1]; PC3, 72 hours, 0.06 μM",−37.32%
same,Cell death (%) MEAN,"[1]; PC3, 72 hours, 0.06 μM",−39.06%
same,Cell death #1 (%),"[1]; PC3, 72 hours, 0.17 μM",−49.03%
same,Cell death #2 (%),"[1]; PC3, 72 hours, 0.17 μM",−43.54%
same,Cell death #3 (%),"[1]; PC3, 72 hours, 0.17 μM",−39.93%
same,Cell death (%) MEAN,"[1]; PC3, 72 hours, 0.17 μM",−44.17%
same,Cell death #1 (%),"[1]; PC3, 72 hours, 0.51 μM",−71.45%
same,Cell death #2 (%),"[1]; PC3, 72 hours, 0.51 μM",−77.56%
same,Cell death #3 (%),"[1]; PC3, 72 hours, 0.51 μM",−73.70%
same,Cell death (%) MEAN,"[1]; PC3, 72 hours, 0.51 μM",−74.24%
same,Cell death #1 (%),"[1]; PC3, 72 hours, 1.54 μM",−63.98%
same,Cell death #2 (%),"[1]; PC3, 72 hours, 1.54 μM",−69.71%
same,Cell death #3 (%),"[1]; PC3, 72 hours, 1.54 μM",−46.41%
same,Cell death (%) MEAN,"[1]; PC3, 72 hours, 1.54 μM",−60.03%
same,Cell death #1 (%),"[1]; PC3, 72 hours, 4.63 μM",−74.57%
same,Cell death #2 (%),"[1]; PC3, 72 hours, 4.63 μM",−70.83%
same,Cell death #3 (%),"[1]; PC3, 72 hours, 4.63 μM",−81.17%
same,Cell death (%) MEAN,"[1]; PC3, 72 hours, 4.63 μM",−75.52%
same,Cell death #1 (%),"[1]; PC3, 72 hours, 13.89 μM",−60.86%
same,Cell death #2 (%),"[1]; PC3, 72 hours, 13.89 μM",−51.02%
same,Cell death #3 (%),"[1]; PC3, 72 hours, 13.89 μM",−63.98%
same,Cell death (%) MEAN,"[1]; PC3, 72 hours, 13.89 μM",−58.62%
same,Cell death #1 (%),"[1]; PC3, 72 hours, 41.67 μM",−35.45%
same,Cell death #2 (%),"[1]; PC3, 72 hours, 41.67 μM",−32.21%
same,Cell death #3 (%),"[1]; PC3, 72 hours, 41.67 μM",−34.95%
same,Cell death (%) MEAN,"[1]; PC3, 72 hours, 41.67 μM",−34.20%
same,Cell death #1 (%),"[1]; PC3, 72 hours, 125.00 μM",35.94%
same,Cell death #2 (%),"[1]; PC3, 72 hours, 125.00 μM",32.46%
same,Cell death #3 (%),"[1]; PC3, 72 hours, 125.00 μM",22.11%
same,Cell death (%) MEAN,"[1]; PC3, 72 hours, 125.00 μM",30.17%
same,cytotoxicity compared with the other test articles,[2],less cytotoxic than dibenzyl butyl lactone derivative enantiomers A and B
same,TP Concentration,[2]; human,230.8 µM
same,dTP Concentration,[2]; human,21.8 µM
same,similarity of dTP concentrations between all three compounds,[2]; human,≤ 2 fold
